Experimental data from the supplement of paper PMC10307832.

How the values were obtained:
Experiment in all cases: relative viability (nuclei count vs DMSO), 5 days (fraction); higher = more cells survive
Doramapimod + Pemetrexed = compound: Cc1ccc(-n2nc(C(C)(C)C)cc2NC(=O)Nc2ccc(OCCN3CCOCC3)c3ccccc23)cc1 [Doramapimod] + Nc1nc2[nH]cc(CCc3ccc(C(=O)N[C@@H](CCC(=O)O)C(=O)O)cc3)c2c(=O)[nH]1 [Pemetrexed] (partner 0.2 µM)
Outline: (§1)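 Lung cancer cell lines were pin-tool dosed in 1536-well plates on the day after seeding, with either a lone drug or a fixed anchor-drug dose plus five library-drug doses (not always all listed) in √10 steps. Nuclei were counted on 4× images after 5 days. Relative viability is the ratio of treated-well to vehicle-well nuclei counts, with each value a median of duplicate plates.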

IPA-3 + Dasatinib = compound: C1=CC=C2C(=C1)C=CC(=C2SSC3=C(C=CC4=CC=CC=C43)O)O [IPA-3] + Cc1nc(Nc2ncc(C(=O)Nc3c(C)cccc3Cl)s2)cc(N2CCN(CCO)CC2)n1 [Dasatinib] (partner 0.075 µM)
Outline: as §1

IPA-3 + Alpelisib = compound: C1=CC=C2C(=C1)C=CC(=C2SSC3=C(C=CC4=CC=CC=C43)O)O [IPA-3] + Cc1nc(NC(=O)N2CCC[C@H]2C(N)=O)sc1-c1ccnc(C(C)(C)C(F)(F)F)c1 [Alpelisib] (partner 2 µM)
Outline: as §1

Doramapimod + OSI-027 = compound: Cc1ccc(-n2nc(C(C)(C)C)cc2NC(=O)Nc2ccc(OCCN3CCOCC3)c3ccccc23)cc1 [Doramapimod] + COc1cccc2cc(-c3nc([C@H]4CC[C@H](C(=O)O)CC4)n4ncnc(N)c34)[nH]c12 [OSI-027] (partner 0.5 µM)
Outline: as §1

Row | Cell Line | relative viability (Doramapimod + Pemetrexed; first compound 0.02 µM) | relative viability (Doramapimod + Pemetrexed; first compound 0.06325 µM) | relative viability (Doramapimod + Pemetrexed; first compound 0.2 µM) | relative viability (Doramapimod + Pemetrexed; first compound 0.6325 µM) | relative viability (Doramapimod + Pemetrexed; first compound 2 µM) | relative viability (IPA-3 + Dasatinib; first compound 0.2 µM) | relative viability (IPA-3 + Dasatinib; first compound 0.6325 µM) | relative viability (IPA-3 + Dasatinib; first compound 2 µM) | relative viability (IPA-3 + Dasatinib; first compound 6.325 µM) | relative viability (IPA-3 + Dasatinib; first compound 20 µM) | relative viability (IPA-3 + Alpelisib; first compound 0.2 µM) | relative viability (IPA-3 + Alpelisib; first compound 0.6325 µM) | relative viability (IPA-3 + Alpelisib; first compound 2 µM) | relative viability (IPA-3 + Alpelisib; first compound 6.325 µM) | relative viability (IPA-3 + Alpelisib; first compound 20 µM) | relative viability (Doramapimod + OSI-027; first compound 0.02 µM) | relative viability (Doramapimod + OSI-027; first compound 0.06325 µM) | relative viability (Doramapimod + OSI-027; first compound 0.2 µM) | relative viability (Doramapimod + OSI-027; first compound 0.6325 µM) | relative viability (Doramapimod + OSI-027; first compound 2 µM)
1 | NCI-H1755 | 0.328 | 0.371 | 0.435 | 0.394 | 0.35 | 0.512 | 0.44 | 0.371 | 0.426 | 0.472 | 1.11 | 0.918 | 0.908 | 0.939 | 1.03 | 0.709 | 0.659 | 0.727 | 0.669 | 0.586
2 | EPLC-272H | 0.351 | 0.301 | 0.303 | 0.374 | 0.327 | 0.337 | 0.325 | 0.413 | 0.411 | 0.543 | 0.962 | 0.947 | 0.902 | 0.968 | 1.23 | 0.32 | 0.297 | 0.306 | 0.316 | 0.295
3 | NCI-H1437 | 0.291 | 0.287 | 0.323 | 0.329 | 0.302 | 0.542 | 0.411 | 0.286 | 0.501 | 0.718 | 1.32 | 0.938 | 1.11 | 0.974 | 1.27 | 0.953 | 0.883 | 0.852 | 0.938 | 0.866
4 | EKVX | 0.426 | 0.34 | 0.325 | 0.415 | 0.357 | 0.538 | 0.544 | 0.599 | 0.537 | 0.486 | 0.923 | 0.859 | 0.941 | 0.941 | 1.27 | 0.718 | 0.684 | 0.679 | 0.671 | 0.698
5 | NCI-H1651 | 0.576 | 0.731 | 0.594 | 0.658 | 0.595 | 0.652 | 0.304 | 0.486 | 0.574 | 0.458 | 1.01 |  | 0.912 | 0.904 | 1.15 | 0.751 | 0.701 | 0.727 | 0.729 | 0.656
6 | HCC-15 | 0.225 | 0.231 | 0.245 | 0.211 | 0.224 | 0.682 | 0.605 | 0.548 | 0.596 | 0.471 | 1.01 | 0.831 | 0.73 | 0.876 | 0.928 | 0.688 | 0.645 | 0.68 |  | 0.539
7 | LCLC-103H | 0.436 | 0.417 | 0.413 | 0.428 | 0.424 | 0.492 | 0.482 | 0.422 | 0.56 | 0.566 | 0.926 | 0.806 | 0.81 | 0.943 | 1.02 | 0.444 | 0.424 | 0.386 | 0.422 | 0.396
8 | NCI-H23 | 0.607 | 0.749 | 0.679 | 0.703 | 0.533 | 0.598 | 0.795 | 0.861 | 0.724 | 0.617 | 0.694 | 0.577 | 0.73 | 0.645 | 0.805 | 0.646 | 0.601 | 0.663 | 0.491 | 0.628
